Non-standard residues stand in square brackets, D forms with d. Residues, ends and D or L forms follow the SMILES beside them. *: point of attachment. NMeI = CC[C@H](C)[C@H](NC)C(=O)O; NMeD = CN[C@@H](CC(=O)O)C(=O)O; NMeV = CN[C@H](C(=O)O)C(C)C; Pip = O=C(O)[C@@H]1CCCCN1; dLac = C[C@@H](O)C(=O)O; OtBu = CC(C)(C)O*

EC50 data for two molecules are collected here from ChEMBL document CHEMBL2074051, “Ranking of P-glycoprotein substrates and inhibitors by a calcein-AM fluorometry screening assay” (Anticancer Drugs, 1996).

What all share (format): functional, cell-based
For series [1], the target named is T1, ATP-dependent translocase ABCB1 (P-glycoprotein) (Homo sapiens, UniProt P08183). In words: TP_TRANSPORTER: increase in Calcein-AM intracellular accumulation (Calcein-AM: 0.25 uM) in MDR-P388 cells. As to conditions: mouse, probe Calcein-AM.
The target in series [2] is T1, ATP-dependent translocase ABCB1 (P-glycoprotein). In words: (§1) TP_TRANSPORTER: increase in Calcein-AM intracellular accumulation (Calcein-AM: 0.25 uM) in MDR-CEM cells. The note with it: human, MDR-CEM cells, probe Calcein-AM.
Series [3] has as its target ATP-dependent translocase ABCB1 (Homo sapiens, UniProt P08183). Described as §1.

T1 sequence (P08183 whole entry): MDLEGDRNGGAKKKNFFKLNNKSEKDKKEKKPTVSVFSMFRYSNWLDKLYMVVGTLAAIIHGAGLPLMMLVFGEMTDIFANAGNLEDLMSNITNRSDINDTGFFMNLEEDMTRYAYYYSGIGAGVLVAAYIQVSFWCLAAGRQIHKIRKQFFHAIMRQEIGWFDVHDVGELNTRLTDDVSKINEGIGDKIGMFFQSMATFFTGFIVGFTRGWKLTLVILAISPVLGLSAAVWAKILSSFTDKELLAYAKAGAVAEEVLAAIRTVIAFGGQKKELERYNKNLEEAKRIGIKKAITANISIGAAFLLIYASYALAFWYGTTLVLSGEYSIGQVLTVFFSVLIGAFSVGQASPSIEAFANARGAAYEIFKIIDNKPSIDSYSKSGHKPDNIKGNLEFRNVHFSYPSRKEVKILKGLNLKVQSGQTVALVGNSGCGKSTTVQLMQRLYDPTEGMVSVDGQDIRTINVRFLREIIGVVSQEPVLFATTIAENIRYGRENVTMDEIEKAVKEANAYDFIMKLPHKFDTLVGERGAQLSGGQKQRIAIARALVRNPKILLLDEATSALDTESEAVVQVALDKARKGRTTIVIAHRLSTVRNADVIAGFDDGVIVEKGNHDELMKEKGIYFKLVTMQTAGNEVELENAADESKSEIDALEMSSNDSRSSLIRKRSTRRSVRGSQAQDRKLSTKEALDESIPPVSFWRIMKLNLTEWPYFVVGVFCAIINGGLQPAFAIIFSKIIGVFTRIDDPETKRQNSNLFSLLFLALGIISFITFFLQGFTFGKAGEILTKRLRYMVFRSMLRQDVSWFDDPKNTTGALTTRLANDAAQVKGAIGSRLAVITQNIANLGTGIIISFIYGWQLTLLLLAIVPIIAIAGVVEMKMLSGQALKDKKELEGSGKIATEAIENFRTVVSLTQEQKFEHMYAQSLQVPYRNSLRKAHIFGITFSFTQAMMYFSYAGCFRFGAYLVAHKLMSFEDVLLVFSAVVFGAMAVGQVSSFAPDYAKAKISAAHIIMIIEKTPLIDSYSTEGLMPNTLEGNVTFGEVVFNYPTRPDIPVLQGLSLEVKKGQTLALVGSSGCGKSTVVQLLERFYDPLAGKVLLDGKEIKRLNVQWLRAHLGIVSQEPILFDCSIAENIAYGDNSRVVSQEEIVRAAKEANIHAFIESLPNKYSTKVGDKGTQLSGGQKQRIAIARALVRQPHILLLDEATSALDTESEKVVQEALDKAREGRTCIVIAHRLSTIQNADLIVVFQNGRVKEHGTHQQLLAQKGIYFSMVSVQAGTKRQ
Sequence of ATP-dependent translocase ABCB1 (P08183 whole entry): as above

The EC50 is the concentration that produces a half-maximal response. Regarding `CC[C@H](C)[C@H]1C(=O)NCC(=O)N(C)[C@@H](C(C)C)C(=O)N[C@@H](Cc2ccc(OC)cc2)C(=O)O[C@H](C)C(=O)N2CCCC[C@H]2C(=O)N(C)[C@@H](C(C)C)C(=O)N[C@@H](C(C)C)C(=O)N(C)[C@@H](CC(=O)OC(C)(C)C)C(=O)N(C)[C@@H]([C@@H](C)CC)C(=O)N1C` (cyclo(G[NMeV]Y(Me)[dLac][Pip][NMeV]V[NMeD](OtBu)[NMeI][NMeI])), the EC50 is 60 nM in series [1] and 220 nM in series [2].

In the case of `CCN(CC)CCCC(C)Nc1c2ccc(Cl)cc2nc2ccc(OC)cc12` (stereo not drawn) [QUINACRINE], the EC50 in series [3] was 14400 nM.
